From article PMC6968633, “Synthesis, antibacterial and anticancer activity, and docking study of aminoguanidines containing an alkynyl moiety” (Journal of Enzyme Inhibition and Medicinal Chemistry, 2019)
Values after ≈ are worked out from the molar mass of the structure shown.

How the values were obtained:
[1] = test system: SGC7901; assay: Cytotoxicity, CCK-8 assay; type: cell-based; conditions: Homo sapiens, SGC-7901, SGC7901 gastric cancer cells, 48 h
Description: (§1) A lung cancer cell line (A549), gastric cancer cell line (SGC7901) and human hepatocytes (L02) were used to test the anticancer activity and cytotoxicity of the new compounds. 5-Fluorouracil (5-FU) was used as the positive control against cancer cell lines. The A549, SGC7901 and L02 cells were grown in Dulbecco’s modified Eagle’s medium (DMEM) supplemented with 10% foetal bovine serum (FBS) and antibiotics (100 U/mL penicillin-streptomycin). Cells at 80–90% confluence were split by trypsin (0.25% in PBS; pH 7.4), and the medium was changed at 24 h intervals. The cells were cultured at 37 °C in a 5% CO2 incubator. The cells were passaged three times, then approximately 1 × 10^4 cells were seeded into each well of a 96-well plate and allowed to incubate to allow attachment of the cells to the surface. After 24 h, the medium was replaced with DMEM supplemented with 10% FBS containing various concentrations (0.1, 0.3, 1, 3, 10, and 30 μg/mL) of test compounds. Each concentration was tested in triplicate. After 48 h treatment, 20 µL of CCK-8 solution was added to each well and the optical density measured at 450 nm after 3 h using a microplate reader. The IC50 values were defined as the concentrations inhibiting 50% of cell growth.

[2] = test system: A549; assay: Cytotoxicity, CCK-8 assay; type: cell-based; conditions: Homo sapiens, A549 lung cancer cells, 48 h
Description: as §1

[3] = test system: L02; assay: Cytotoxicity, CCK-8 assay, normal cell line; type: cell-based; conditions: L02 normal human hepatocytes, 48 h
Description: as §1

[4] = test system: Escherichia coli CMCC 44568; assay: Antibacterial MIC, serial dilution; type: cell-based; conditions: Escherichia coli, CMCC44568; E. coli CMCC 44568, 24 h, 37 °C; read-out: MIC
Description: (§2) Test bacteria were grown to mid-log phase in Mueller–Hinton broth (MHB) or Tryptone Soya Broth (TSB) and diluted 1000-fold in the same medium. Bacteria (10^5 CFU/mL) were inoculated into MHB or TSB and dispensed at 0.2 ml/well into a 96-well microtiter plate. As positive controls, gatifloxacin, moxifloxacin, norfloxacin, oxacillin, and penicillin were used. […] Bacterial growth was determined by measuring the absorption at 630 nm using a microplate reader. All experiments were carried out three times.
(§3) The evaluation of antibacterial activity of all compounds (3a–3j and 6a–6k) was performed by a serial dilution method to determine the MIC against a panel of pathogens comprising five Gram-positive strains (S. aureus (CMCC(B) 26003 and CMCC 25923), Streptococcus mutans BNCC 336931, Enterococcus faecalis CMCC 29212, and Bacillus subtilis CMCC 63501), four Gram-negative strains (E. coli (CMCC 25922 and CMCC 44568) and P. aeruginosa (CMCC 27853 and CMCC 10104)), as well as three methicillin-resistant clinical isolates (S. aureus ATCC 43300 and ATCC 33591, P. aeruginosa ATCC BAA-2111). The results are described in Tables 1 and 2. Gatifloxacin, moxifloxacin, norfloxacin, oxacillin, and penicillin were used as positive controls.

[5] = test system: Streptococcus mutans BNCC 336931; assay: Antibacterial MIC, serial dilution; type: cell-based; conditions: Streptococcus mutans, BNCC336931; S. mutans BNCC 336931, 24 h, 37 °C; read-out: MIC
Description: as §2, §3

[6] = test system: Staphylococcus aureus CMCC(B)26003; assay: Antibacterial MIC, serial dilution; type: cell-based; conditions: Staphylococcus aureus; S. aureus CMCC(B)26003, 24 h, 37 °C; read-out: MIC
Description: as §2, §3

[7] = test system: Pseudomonas aeruginosa CMCC 10104; assay: Antibacterial MIC, serial dilution; type: cell-based; conditions: Pseudomonas aeruginosa, CMCC10104; P. aeruginosa CMCC 10104, 24 h, 37 °C; read-out: MIC
Description: as §2, §3

[8] = test system: Pseudomonas aeruginosa CMCC 27853; assay: Antibacterial MIC, serial dilution; type: cell-based; conditions: Pseudomonas aeruginosa, CMCC27853; P. aeruginosa CMCC 27853, 24 h, 37 °C; read-out: MIC
Description: as §2, §3

[9] = test system: Escherichia coli CMCC 25922; assay: Antibacterial MIC, serial dilution; type: cell-based; conditions: Escherichia coli, CMCC25922; E. coli CMCC 25922, 24 h, 37 °C; read-out: MIC
Description: as §2, §3

[10] = test system: Enterococcus faecalis CMCC 29212; assay: Antibacterial MIC, serial dilution; type: cell-based; conditions: Enterococcus faecalis, CMCC29212; E. faecalis CMCC 29212, 24 h, 37 °C; read-out: MIC
Description: as §2, §3

[11] = test system: Bacillus subtilis CMCC 63501; assay: Antibacterial MIC, serial dilution; type: cell-based; conditions: Bacillus subtilis, CMCC63501; B. subtilis CMCC 63501, 24 h, 37 °C; read-out: MIC
Description: as §2, §3

[12] = test system: Staphyiococcus aureus CMCC 25923; assay: Antibacterial MIC, serial dilution; type: cell-based, Staphylococcus aureus; conditions: Staphylococcus aureus, CMCC25923; S. aureus CMCC 25923, 24 h, 37 °C; read-out: MIC
Description: as §2, §3

[13] = test system: Staphylococcus aureus ATCC 43300; assay: Antibacterial MIC, multidrug-resistant clinical isolate; type: cell-based; conditions: Staphylococcus aureus, ATCC43300; multidrug-resistant S. aureus ATCC 43300; read-out: MIC
Description: as §2, §3

[14] = test system: Staphylococcus aureus ATCC 33591; assay: as above; type: cell-based; conditions: Staphylococcus aureus, ATCC33591; multidrug-resistant S. aureus ATCC 33591; read-out: MIC
Description: as §2, §3

| SMILES | IC50 [1] [µg/mL] | IC50 [2] [µg/mL] | IC50 [3] [µg/mL] | melting point [°C] | MIC [4] [µg/mL] | MIC [5] [µg/mL] | MIC [6] [µg/mL] | MIC [7] [µg/mL] | MIC [8] [µg/mL] | MIC [9] [µg/mL] | MIC [10] [µg/mL] | MIC [11] [µg/mL] | MIC [12] [µg/mL] | MIC [13] [µg/mL] | MIC [14] [µg/mL] |
| --- | --- | --- | --- | --- | --- | --- | --- | --- | --- | --- | --- | --- | --- | --- | --- |
| O=c1[nH]cc(F)c(=O)[nH]1 [5-Fluorouracil, reference compound] | 2.56 (≈ 19.7 µM) | 0.88 (≈ 6.77 µM) | 8.44 (≈ 64.9 µM) |  |  |  |  |  |  |  |  |  |  |  |  |
| N=C(N)NN=Cc1ccc(C#Cc2ccccc2)cc1 [Compound 3a, 2-(4-(Phenylethynyl)benzylidene)hydrazine-1-carboximidamide] |  |  |  | 225 to 226 | 4 (≈ 15.2 µM) | 4 (≈ 15.2 µM) | 1 (≈ 3.81 µM) | 4 (≈ 15.2 µM) | 16 (≈ 61 µM) | 4 (≈ 15.2 µM) | 1 (≈ 3.81 µM) | 2 (≈ 7.62 µM) | 4 (≈ 15.2 µM) |  |  |
| N=C(N)NN=Cc1ccc(C#Cc2ccccc2F)cc1 [Compound 3b, 2-(4-((2-Fluorophenyl)ethynyl)benzylidene)hydrazine-1-carboximidamide] |  |  |  | 189 to 190 | 8 (≈ 28.5 µM) | 4 (≈ 14.3 µM) | 1 (≈ 3.57 µM) | 8 (≈ 28.5 µM) | 128 (≈ 457 µM) | 4 (≈ 14.3 µM) | 1 (≈ 3.57 µM) | 2 (≈ 7.14 µM) | 8 (≈ 28.5 µM) |  |  |
| N=C(N)NN=Cc1ccc(C#Cc2cccc(F)c2)cc1 [Compound 3c, 2-(4-((3-Fluorophenyl)ethynyl)benzylidene)hydrazine-1-carboximidamide] |  |  |  | 223 to 224 | 4 (≈ 14.3 µM) | 2 (≈ 7.14 µM) | 1 (≈ 3.57 µM) | 2 (≈ 7.14 µM) | 16 (≈ 57.1 µM) | 2 (≈ 7.14 µM) | 1 (≈ 3.57 µM) | 1 (≈ 3.57 µM) | 4 (≈ 14.3 µM) | 2 (≈ 7.14 µM) | 1 (≈ 3.57 µM) |
| N=C(N)NN=Cc1ccc(C#Cc2ccc(F)cc2)cc1 [Compound 3d, 2-(4-((4-Fluorophenyl)ethynyl)benzylidene)hydrazine-1-carboximidamide] |  |  |  | 238 to 239 | 8 (≈ 28.5 µM) | 4 (≈ 14.3 µM) | 1 (≈ 3.57 µM) | 2 (≈ 7.14 µM) | 8 (≈ 28.5 µM) | 2 (≈ 7.14 µM) | 1 (≈ 3.57 µM) | 1 (≈ 3.57 µM) | 2 (≈ 7.14 µM) | 4 (≈ 14.3 µM) | 1 (≈ 3.57 µM) |
| N=C(N)NN=Cc1ccc(C#Cc2ccccc2Br)cc1 [Compound 3h, 2-(4-((2-Bromophenyl)ethynyl)benzylidene)hydrazine-1-carboximidamide] |  |  |  | 188 to 190 | 4 (≈ 11.7 µM) | 2 (≈ 5.86 µM) | 2 (≈ 5.86 µM) | 8 (≈ 23.4 µM) | > 128 | 4 (≈ 11.7 µM) | 1 (≈ 2.93 µM) | 2 (≈ 5.86 µM) | 1 (≈ 2.93 µM) |  |  |
| N=C(N)NN=Cc1ccc(C#Cc2ccc(Br)cc2)cc1 [Compound 3j, 2-(4-((4-Bromophenyl)ethynyl)benzylidene)hydrazine-1-carboximidamide] |  |  |  | 242 to 243 | 128 (≈ 375 µM) | 0.5 (≈ 1.47 µM) | 0.5 (≈ 1.47 µM) | 128 (≈ 375 µM) | > 128 | 2 (≈ 5.86 µM) | 0.5 (≈ 1.47 µM) | 128 (≈ 375 µM) | 1 (≈ 2.93 µM) | 2 (≈ 5.86 µM) | 0.5 (≈ 1.47 µM) |
